Experimental data reported in US11370798B2 (Vertex Pharmaceuticals Incorporated, priority 2012, dated 2022).

test system: HCT116 colorectal cancer cells; assay: Cisplatin sensitization assay (96 h cell viability MTS); type: cell-based; details: compound and Cisplatin added simultaneously, Cisplatin sensitization value;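 note: Test-compound concentration that lowers the Cisplatin IC50 by a set fold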
In short: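 Viability read by MTS (1 h at 37° C) after 96 h co-exposure at 37° C, 5% CO2. Test compound and cisplatin were dosed simultaneously in a full concentration matrix, each 2-fold serially diluted from 10 μM final; sensitization values binned in μM.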

| Structure (SMILES) | Cisplatin Sensitization Assay |
| --- | --- |
| Cc1ncn(C)c1-c1ccncc1NC(=O)c1c(N)nn2cc(F)cnc12 [I-C-78, 2-amino-N-(4-(1,4-dimethyl-1H-imidazol-5-yl)pyridin-3-yl)-6-fluoropyrazolo[1,5-a]pyrimidine-3-carboxamide] | ++ (Cisplatin sensitization value>0.02 μM but <0.2 μM) |
| Cn1cncc1-c1c(F)cncc1NC(=O)c1c(N)nn2cc(F)cnc12 [I-C-79, 2-amino-6-fluoro-N-(5-fluoro-4-(1-methyl-1H-imidazol-5-yl)pyridin-3-yl)pyrazolo[1,5-a]pyrimidine-3-carboxamide] | +++ (Cisplatin sensitization value of <0.02 μM) |
| CCn1cncc1-c1ccncc1NC(=O)c1c(N)nn2cc(F)cnc12 [I-C-80, 2-amino-N-(4-(1-ethyl-1H-imidazol-5-yl)pyridin-3-yl)-6-fluoropyrazolo[1,5-a]pyrimidine-3-carboxamide] | +++ (Cisplatin sensitization value of <0.02 μM) |
| COc1cncc(NC(=O)c2c(N)nn3cc(F)cnc23)c1-c1cncn1C [I-C-81, 2-amino-6-fluoro-N-(5-methoxy-4-(1-methyl-1H-imidazol-5-yl)pyridin-3-yl)pyrazolo[1,5-a]pyrimidine-3-carboxamide] | +++ (Cisplatin sensitization value of <0.02 μM) |
| COc1cncc(NC(=O)c2c(N)nn3cc(F)cnc23)c1-c1cccnc1 [I-C-82, 2-amino-6-fluoro-N-(5′-methoxy-[3,4′-bipyridin]-3′-yl)pyrazolo[1,5-a]pyrimidine-3-carboxamide] | +++ (Cisplatin sensitization value of <0.02 μM) |
| COCCn1cncc1-c1ccncc1NC(=O)c1c(N)nn2cc(F)cnc12 [I-C-83, 2-amino-6-fluoro-N-(4-(1-(2-methoxyethyl)-1H-imidazol-5-yl)pyridin-3-yl)pyrazolo[1,5-a]pyrimidine-3-carboxamide] | ++ (Cisplatin sensitization value>0.02 μM but <0.2 μM) |
| COc1cncc(NC(=O)c2c(N)nn3cc(F)cnc23)c1C1CC1 [I-C-84, 2-amino-N-(4-cyclopropyl-5-methoxypyridin-3-yl)-6-fluoropyrazolo[1,5-a]pyrimidine-3-carboxamide] | ++ (Cisplatin sensitization value>0.02 μM but <0.2 μM) |
| CN1CCN(C(=O)C2CCN(c3ccncc3NC(=O)c3c(N)nn4cc(F)cnc34)CC2)CC1 [I-G-1, 2-amino-6-fluoro-N-(4-(4-(4-methylpiperazine-1-carbonyl)piperidin-1-yl)pyridin-3-yl)pyrazolo[1,5-a]pyrimidine-3-carboxamide] | +++ (Cisplatin sensitization value of <0.02 μM) |
| CN(C)C(=O)C1CCN(c2ccncc2NC(=O)c2c(N)nn3cc(F)cnc23)CC1 [I-G-2, 2-amino-N-(4-(4-(dimethylcarbamoyl)piperidin-1-yl)pyridin-3-yl)-6-fluoropyrazolo[1,5-a]pyrimidine-3-carboxamide] | +++ (Cisplatin sensitization value of <0.02 μM) |
| CN1CCN(C(=O)C2CCN(c3c(Cl)cncc3NC(=O)c3c(N)nn4cc(F)cnc34)CC2)CC1 [I-G-3, 2-amino-N-(5-chloro-4-(4-(4-methylpiperazine-1-carbonyl)piperidin-1-yl)pyridin-3-yl)-6-fluoropyrazolo[1,5-a]pyrimidine-3-carboxamide] | +++ (Cisplatin sensitization value of <0.02 μM) |
| CN1CCN(C(=O)C2CCN(c3c(F)cncc3NC(=O)c3c(N)nn4cc(F)cnc34)CC2)CC1 [I-G-4, 2-amino-6-fluoro-N-(5-fluoro-4-(4-(4-methylpiperazine-1-carbonyl)piperidin-1-yl)pyridin-3-yl)pyrazolo[1,5-a]pyrimidine-3-carboxamide] | +++ (Cisplatin sensitization value of <0.02 μM) |
| CN1CCN(C(=O)C2CCN(c3c(F)cncc3NC(=O)c3c(N)nn4cc(Cl)cnc34)CC2)CC1 [I-G-5, 2-amino-6-chloro-N-(5-fluoro-4-(4-(4-methylpiperazine-1-carbonyl)piperidin-1-yl)pyridin-3-yl)pyrazolo[1,5-a]pyrimidine-3-carboxamide] | +++ (Cisplatin sensitization value of <0.02 μM) |
